Converted amounts (≈) assume the structure as drawn. Where only a bound is given, the exact number is not on record here.

The conditions of the data set: buffer; pH 7.4; 200.0 µM.
`O=C(COc1ccccc1Cl)NCCCNC(=O)c1ccco1`: the kinetic solubility (usually the concentration staying in solution when a stock, usually in DMSO, is diluted into the medium) was more than 50.5 µg/mL.
To `Cc1ccc(/C=C/C(=O)O)cc1S(=O)(=O)Nc1ccc(C(=O)O)cc1` belongs 42.4 µg/mL (≈ 117 µM).
On to `C/C(O)=c1/c(=O)nc2cccc3c2=c1c1ccccc1c3=O`, for which the solubility (kinetic) is less than 0.6 µg/mL.
Compound `CSCCC(NC(=O)c1cccc(C)c1)C(=O)O` (stereo not drawn) gave a kinetic solubility of more than 40.1 µg/mL.
`Cl.O=C(COc1ccc(Cl)cc1)NCCN1CCCC1` registered a kinetic solubility of more than 47.9 µg/mL.
In turn, `COc1ccc(NC(=O)C2CC3CCC2C3)c(OC)c1` (stereo not drawn) had a kinetic solubility of 31.5 µg/mL (≈ 114 µM).
Compound `COc1ccc(Oc2ccc(C(F)(F)F)cc2N)cc1` returned a solubility (kinetic) of 5.3 µg/mL (≈ 18.7 µM).
`COCCNC(=S)N1CCN(c2nc3ccccc3s2)CC1` showed a kinetic solubility of 35.3 µg/mL (≈ 105 µM). This solubility kinetic lies about 6.7-fold higher than the previous one.
For `CCNc1nc(SCC(=O)OC)nc(N(C)C)n1`, the kinetic solubility is more than 40.7 µg/mL.
On to `Cc1ccc(C)c(SCC(=O)Nc2cccnc2Cl)c1`, for which the kinetic solubility was 2.9 µg/mL (≈ 9.45 µM).
The compound `COc1cccc(CC(=O)Nc2nc3ccccc3[nH]2)c1` gave a solubility (kinetic) of 2.2 µg/mL (≈ 7.82 µM). The solubility kinetic values of the last two compounds are within 1.5-fold of each other.
For `Cc1cc(C)c(C2=CSC3=NS(=O)(=O)CCN23)c(C)c1`, the kinetic solubility is more than 46.3 µg/mL.
To `Cc1ccc(-c2ncns2)cc1` belongs 0.5 µg/mL (≈ 2.84 µM); to `COc1ccc(C)cc1NC(=O)CCCN1C(=O)CN(C)C1=O`, more than 47.9 µg/mL.
In turn, `Cc1ccc(NC(=O)COC(=O)C2CC2)cc1S(=O)(=O)N1CCOCC1` yielded a solubility (kinetic) of more than 57.4 µg/mL.
The compound `Cc1cc(C)c(C)c(S(=O)(=O)N[C@@H](C)C(=O)OCC(N)=O)c1C` yielded a kinetic solubility of more than 51.4 µg/mL.
For `CCC(COC(C)=O)Nc1nc2c([nH]1)c(=O)n(C)c(=O)n2C` (stereo not drawn), the kinetic solubility is more than 46.4 µg/mL.
To `COc1ccc(/C=C/C(=O)NC(=S)N2CCOCC2)cc1` belongs more than 46 µg/mL.
`Cn1cccc1C(=O)NCc1ccc(Cl)cc1` returned a solubility (kinetic) of more than 37.3 µg/mL.
On to `CC(=O)N1CCN(S(=O)(=O)c2ccc(Cl)cc2F)CC1`, for which the kinetic solubility was more than 48.1 µg/mL.
To `Cc1ccc(S(=O)(=O)Nc2nc3ccc(N)cc3s2)cc1` belongs 45.8 µg/mL (≈ 143 µM); to `CC(C)CCNC(=O)CCCCn1c(=O)[nH]c2ccsc2c1=O`, 47.1 µg/mL (≈ 140 µM); to `CCOC(=O)c1cccc(NC(=O)c2ccc3c(c2)OCO3)c1`, 2.7 µg/mL (≈ 8.62 µM).
Compound `Cc1ccc(CNC(=O)CCCc2ccccc2)cc1` registered a solubility (kinetic) of 9.2 µg/mL (≈ 34.4 µM).
`COC(=O)CCC(=O)NNC(=O)c1ccc([N+](=O)[O-])cc1` came in with a solubility (kinetic) of more than 44.3 µg/mL.
With `CC(=O)c1sc(NC(C)c2ccccc2)nc1C` (stereo not drawn), the solubility (kinetic) amounted to 30.4 µg/mL (≈ 117 µM).
The compound `O=C(NCCCc1ccccc1)c1cncc(Br)c1` registered a solubility (kinetic) of 47.9 µg/mL (≈ 150 µM). Compared with the last compound, the solubility kinetic is about 1.6-fold higher.
For `c1csc(-c2nnc(COc3ncnc4sccc34)o2)c1`, the kinetic solubility is more than 47.5 µg/mL.
With `Cc1nc2c(ncn2-c2ccccc2)c(=O)n1NC(=O)CN1CCCC1` the figure was more than 52.9 µg/mL; with `COc1cc(Cl)c(C)cc1NC(=O)COC(=O)C1CC1C` (stereo not drawn), 29.9 µg/mL (≈ 95.9 µM); with `COc1cc(C(=O)Nc2ccc(C)cn2)c([N+](=O)[O-])cc1OC`, more than 47.6 µg/mL.
Consider `CC(=O)c1ccc(N2CCN(C(=O)c3cccs3)CC2)c(F)c1`, for which the kinetic solubility was more than 49.9 µg/mL.
`Cc1cccnc1NC(=S)Nc1ccc(F)cc1F` came in with a solubility (kinetic) of 8 µg/mL (≈ 28.6 µM).
With `CCN(C(=O)Cc1c(C(=O)O)n(CC)c2ccccc12)c1ccccc1C` the figure was 42.7 µg/mL (≈ 117 µM); with `O=C(/C=C/c1ccc(O)c(O)c1)NC(=O)c1ccccc1O`, more than 44.9 µg/mL.
As for `CC(C)(C)C(=O)CSc1ncnc2sc3c(c12)CCC3`, the solubility (kinetic) came to 0.7 µg/mL (≈ 2.28 µM).
Compound `COc1ccc(NC(=O)CCC(=O)N2CCOCC2)c([N+](=O)[O-])c1` showed a kinetic solubility of more than 50.6 µg/mL.
With `COc1cccc(N2CCN(C(=O)c3ccc4nc[nH]c4c3)CC2)c1` the figure was 48.6 µg/mL (≈ 144 µM).
`CC(=O)c1cccc(NC(=O)C2C3CCC(C3)C2C(=O)O)c1` (stereo not drawn) gave a kinetic solubility of 42.9 µg/mL (≈ 142 µM).
Compound `COc1ccc(CNC(=O)COC(=O)c2cc3ccccc3o2)cc1` registered a kinetic solubility of 5.4 µg/mL (≈ 15.9 µM).
For the compound `Cc1ccc(NC(=O)CN2C(=O)NC(C)(CC(C)C)C2=O)c(Br)c1` (stereo not drawn), the solubility (kinetic) was 55.5 µg/mL (≈ 140 µM).
Regarding `COc1cccc2c1O/C(=N\O)C(C(=O)Nc1cccc(C)c1C)C2` (stereo not drawn), the solubility (kinetic) is more than 51.1 µg/mL.
With `Cc1ccc(S(=O)(=O)N2CCOCC2)cc1NC(=O)CNC(C)c1ccccc1.O=C(O)C(=O)O` (stereo not drawn) the figure was 74.1 µg/mL; with `CCN1C(=O)c2cccc3c(S(=O)(=O)N4CCNCC4)ccc1c23`, more than 51.8 µg/mL.
With `CCOC(=O)CSc1nc(COc2ccccc2)nc2ccccc12`, the solubility (kinetic) amounted to 0.6 µg/mL (≈ 1.69 µM).
Regarding `COc1ccc(N2CC(C(=O)Nc3cccnc3)CC2=O)cc1` (stereo not drawn), the solubility (kinetic) was more than 46.7 µg/mL.
In turn, `S=C(NCCc1ccccc1)Nc1ccccc1` came in with a solubility (kinetic) of 31.5 µg/mL (≈ 123 µM).
`NS(=O)(=O)c1ccc(NC(=O)Cc2cccs2)cc1` showed a solubility (kinetic) of more than 44.5 µg/mL.
Turning to `CC(NC(=S)Nc1ccc(F)cc1)c1ccccc1` (stereo not drawn), the kinetic solubility was 27.7 µg/mL (≈ 101 µM).
`CSc1ncccc1C(=O)OCC(=O)N1CC2(C)CC1CC(C)(C)C2` (stereo not drawn): the solubility (kinetic) was more than 54.4 µg/mL.
Take `O=C(COc1ccc([N+](=O)[O-])cc1)N1CCc2ccccc2C1`: the solubility (kinetic) came out at 37.5 µg/mL (≈ 120 µM).
To `CCN(CC)c1ccc(NC(=O)Nc2cccc3ccccc23)cc1` belongs 0.6 µg/mL (≈ 1.8 µM).
With `COC(=O)CCCCCCCCC(O)CN(C)C` (stereo not drawn) the figure was 27.7 µg/mL (≈ 107 µM); with `O=C1CN(C(=O)COC(=O)CCC(=O)c2ccc(Cl)cc2)c2ccccc2N1`, 57.2 µg/mL (≈ 143 µM); with `CC(C)CC(=O)Nc1ccccc1N1CCN(c2ccccc2)CC1`, 1.6 µg/mL (≈ 4.74 µM).
To `CCc1nc2oc3ccccc3c(=O)c2c(=O)n1-c1ccc(C)cc1` belongs 44.2 µg/mL (≈ 133 µM); to `Cc1ccc2c(c1)sc1nc(=O)ccn12`, more than 32.4 µg/mL; to `O=C(Nc1ccccc1)C1COc2ccccc2O1` (stereo not drawn), 30.1 µg/mL (≈ 118 µM).
In turn, `O=C(Nc1ccc2ccccc2c1)c1ccccc1O` returned a solubility (kinetic) of 0.7 µg/mL (≈ 2.66 µM).
As to `Cc1cc(NC(=O)c2ccc([N+](=O)[O-])cc2)no1`, the kinetic solubility was less than 0.2 µg/mL.
To `O=C(NCc1ccccc1F)C1CCCN1C(=O)Nc1ccccc1` (stereo not drawn) belongs more than 51.2 µg/mL; to `COc1ccc(Cn2c(C)nc3ccc([N+](=O)[O-])cc3c2=O)cc1`, 3.8 µg/mL (≈ 11.7 µM).
As to `Cc1ccc(OCCNC(=O)CNC(=O)c2ccc(C)cc2)cc1`, the kinetic solubility amounted to 6.8 µg/mL (≈ 20.8 µM).
In turn, `c1ccc2c(c1)CCc1c-2nc2ccccc2c1N1CCOCC1` returned a kinetic solubility of 10.5 µg/mL (≈ 33.2 µM).
The compound `COc1ccc(/C=C2\C(=O)ON=C2c2ccccc2)cc1` came in with a kinetic solubility of 39.1 µg/mL (≈ 140 µM).
Turning to `Cc1ccc(NC(=S)NCCSc2ccc(Cl)cc2)cc1`, the solubility (kinetic) was less than 0.4 µg/mL.
To `O=C(COc1ccc(Cl)cc1Cl)NC(=O)c1ccccc1` belongs less than 0.7 µg/mL.
For the compound `Cc1ccc2nc(SCC(=O)N3CCN(c4ccccc4)CC3)[nH]c2c1`, the solubility (kinetic) worked out at 1.7 µg/mL (≈ 4.64 µM).
For the compound `Fc1cccc(CNC2CCN(CCc3ccccc3)CC2)c1`, the solubility (kinetic) was 33.7 µg/mL (≈ 108 µM).
On to `Cc1cccc(C)c1NC(=O)COC(=O)c1ccc([N+](=O)[O-])o1`, for which the kinetic solubility worked out at 34.3 µg/mL (≈ 108 µM).
To `CCCCC(=O)N/C(N)=N/c1nc2ccccc2o1` belongs 0.7 µg/mL (≈ 2.69 µM).
Take `CCC(=O)Oc1ccc(C2NC(=O)c3ccccc3O2)cc1OC` (stereo not drawn): the kinetic solubility came to 28.5 µg/mL (≈ 87.1 µM).
In turn, `Cc1cccc(S(=O)(=O)N2CCCc3ccccc32)c1` came in with a solubility (kinetic) of 6.7 µg/mL (≈ 23.3 µM).
With `O=S(=O)(Nc1cccc2ccccc12)c1cccs1` the figure was 5.1 µg/mL (≈ 17.6 µM); with `CC1(C)CN(C(=S)Nc2ccc(F)cc2F)C1=O`, 5.1 µg/mL (≈ 18.9 µM); with `C[C@H](NC(=O)c1ccco1)C(=O)NC1CCCCCC1`, more than 41.8 µg/mL.
With `CN(C)S(=O)(=O)c1cc(C(=O)NCc2ccccc2)c(Cl)cc1Cl` the figure was 47.1 µg/mL (≈ 122 µM); with `O=C(Nc1ccc(N2CCCC2)cc1)c1cc2ccccc2o1`, 0.4 µg/mL (≈ 1.31 µM); with `CCN(Cc1ccccc1)C(=O)COC(=O)c1cc(S(=O)(=O)Nc2ccccc2OC)ccc1O`, 6 µg/mL (≈ 12 µM).
To `CC(NC(=O)COC(=O)c1cc(S(=O)(=O)N2CCOCC2)ccc1F)c1ccccc1` (stereo not drawn) belongs more than 67.6 µg/mL; to `CCOc1ccccc1C1CC(=O)Nc2cc(C)c(C)cc21` (stereo not drawn), less than 0.6 µg/mL.
Regarding `C/C(=N\O)c1ccc2c(c1)CC(C)O2` (stereo not drawn), the kinetic solubility is more than 28.7 µg/mL.
`O=C(CSc1nccc(-c2cccs2)n1)Nc1ccccc1` gave a solubility (kinetic) of 2.3 µg/mL (≈ 7.02 µM).
In turn, `O=C(Nc1cccc(C(F)(F)F)c1)OC1CN2CCC1CC2` (stereo not drawn) displayed a solubility (kinetic) of more than 47.1 µg/mL.
With `COc1cccc(NC(=O)c2ccccc2Oc2ccccc2)c1`, the kinetic solubility came to 6.4 µg/mL (≈ 20 µM).
The compound `O=C(O)/C=C/C(=O)NCc1csc2ccccc12` returned a solubility (kinetic) of 5.2 µg/mL (≈ 19.9 µM). The solubility kinetic values of the last two compounds are within 1.5-fold of each other.
In the case of `COc1ccccc1-n1c(-c2ccccc2)nc2ccccc2c1=O`, the kinetic solubility was more than 49.3 µg/mL.
With `CCOC(=O)c1ccc(N=C(C)c2c(O)[nH]c(=O)[nH]c2=O)cc1` the figure was 6.6 µg/mL (≈ 20.8 µM).
With `O=c1c2ccccc2n(CC(O)CN2CCCCC2)c2ccccc12` (stereo not drawn) the figure was more than 50.5 µg/mL; with `COc1cc(NC(=S)N2CCOCC2)c(OC)cc1Cl`, more than 47.5 µg/mL; with `COc1ccc(/C=C/C(=O)O)cc1S(=O)(=O)N1CCCCC1`, more than 48.8 µg/mL.
`CCCC1(c2ccccc2)NC(=O)N(C/C=C/Cl)C1=O` (stereo not drawn) gave a kinetic solubility of more than 43.9 µg/mL.
Consider `O=C(Nc1cc(=O)[nH]c(=O)[nH]1)c1cc(Cl)ccc1Cl`, for which the solubility (kinetic) was more than 45 µg/mL.
In turn, `Cc1cc(NC(=O)c2cccs2)ncc1NC(=O)C(C)(C)C` came in with a kinetic solubility of 38.6 µg/mL (≈ 122 µM).
`O=C(COC(=O)c1cc(=O)[nH]c2ccccc12)NCc1ccccc1` had a solubility (kinetic) of 20.8 µg/mL (≈ 61.8 µM).
In turn, `COc1ccccc1N1CCN(C(=S)Nc2ccc(F)cc2)CC1` displayed a solubility (kinetic) of 4 µg/mL (≈ 11.6 µM).
To `COc1cc2c(cc1OC)CN(C(=O)c1ccc(Cl)c(S(=O)(=O)N3CCCC3)c1)CC2` belongs more than 69.7 µg/mL; to `CC(C)N1CC(C(=O)Nc2cc(Cl)cc(Cl)c2)CC1=O` (stereo not drawn), more than 47.3 µg/mL; to `O=c1c2c([nH]c3ccccc13)CCC2`, more than 27.8 µg/mL.
To `O=[N+]([O-])/C=C1\C=CC=CN1Cc1ccc(Cl)cc1` belongs 31.7 µg/mL (≈ 121 µM); to `CCc1ccc(OCC(=O)Oc2ccc([N+](=O)[O-])cc2)cc1`, 29.4 µg/mL (≈ 97.6 µM); to `COC(=O)C(=C/C=C/c1cccnc1)C(=O)OC`, more than 37.1 µg/mL.
In the case of `COc1ccc(Cc2nc3ccccc3[nH]c2=O)cc1`, the solubility (kinetic) came to 4.7 µg/mL (≈ 17.6 µM).
